A short description of this series: Base number (TBN) according to ASTM D2896. Conditions: neat ionic liquid. The class given is physicochemical. The procedure:
An oil's neutralization capacity is measured by its BN or Base Number, characterized by its basicity. It is measured according to standard ASTM D-2896 and is expressed as an equivalent in milligrams of potash per gram of oil (also called “mg of KOH/g” or “BN point”). The BN is a standard criterion making it possible to adjust the basicity of the cylinder oils to the sulphur content of the fuel oil used, in order to be able to neutralize all of the sulphur contained in the fuel, and capable of being converted to sulphuric acid by combustion and hydrolysis.

Substance “Tri-n-Octylmethylammonium 2-Ethylhexanoate [IL1]” registered a base number of 114 mg KOH/g.
